Experimental data from ChEMBL document CHEMBL1157329, “Granulatamides A and B, cytotoxic tryptamine derivatives from the soft coral Eunicella granulata” (2006).

Key:
Format in all cases: functional
[1] = tested on: LoVo; assay: Cytotoxicity against human doxorubicin-resistant LOVO cells by SRB assay
[2] = Cytotoxicity against human HMEC1 cells by SRB assay; details: HMEC-1
[3] = Cytotoxicity against human IGROV cells by SRB assay
[4] = tested on: SK-MEL-28; assay: Cytotoxicity against human SK-MEL-28 cells by SRB assay
[5] = tested on: PANC-1; assay: Cytotoxicity against human PANC1 cells by SRB assay
[6] = tested on: LNCaP; assay: Cytotoxicity against human LNcaP cells by SRB assay
[7] = tested on: SK-OV-3; assay: Cytotoxicity against human SK-OV-3 cells by SRB assay
[8] = tested on: K562; assay: Cytotoxicity against human K562 cells by SRB assay
[9] = tested on: SK-BR-3; assay: Cytotoxicity against human SK-BR3 cells by SRB assay
[10] = tested on: A549; assay: Cytotoxicity against human A549 cells by SRB assay
[11] = tested on: DU-145; assay: Cytotoxicity against human DU145 cells by SRB assay
[12] = Cytotoxicity against human ecteinascidin-743-resistant IGROV-ET cells by SRB assay
[13] = tested on: HT-29; assay: Cytotoxicity against human HT29 cells by SRB assay
[14] = tested on: LoVo; assay: Cytotoxicity against human LOVO cells by SRB assay
[15] = tested on: HeLa; assay: Cytotoxicity against human HeLa cells by SRB assay
[16] = tested on: HeLa; assay: Cytotoxicity against human aplidin-resistant HeLa cells by SRB assay

SMILES	GI50 [1]	GI50 [2]	GI50 [3]	GI50 [4]	GI50 [5]	GI50 [6]	GI50 [7]	GI50 [8]	GI50 [9]	GI50 [10]	GI50 [11]	GI50 [12]	GI50 [13]	GI50 [14]	GI50 [15]	GI50 [16]
CCCCCCCCC/C(C)=C\C(=O)NCCc1c[nH]c2ccccc12 [GRANULATAMIDE A]	12 µM	6.2 µM	6.7 µM	3.9 µM	10.4 µM	4.7 µM	11.6 µM	6.8 µM	2.7 µM	6.7 µM	1.7 µM	12.7 µM	2.2 µM	10.5 µM	–	–
CCCCCCC/C(C)=C/C(C)=C\C(=O)NCCc1c[nH]c2ccccc12 [GRANULATAMIDE B]	10 µM	–	8.2 µM	10.6 µM	6.5 µM	3.5 µM	–	4.3 µM	6 µM	8.9 µM	7.7 µM	6.7 µM	13.8 µM	8.6 µM	9.7 µM	9 µM
